How the values were obtained:
muscarinic M2R = target: T1, muscarinic M2R (Homo sapiens, UniProt P08172); experiment: Intracellular Ca2+ measurement, functional response to ACh, M2R in CHO cells; format: cell-based
T1 construct: host or cells: CHO cells (whole cells, Fura-2)
T1 sequence (P08172 1-466): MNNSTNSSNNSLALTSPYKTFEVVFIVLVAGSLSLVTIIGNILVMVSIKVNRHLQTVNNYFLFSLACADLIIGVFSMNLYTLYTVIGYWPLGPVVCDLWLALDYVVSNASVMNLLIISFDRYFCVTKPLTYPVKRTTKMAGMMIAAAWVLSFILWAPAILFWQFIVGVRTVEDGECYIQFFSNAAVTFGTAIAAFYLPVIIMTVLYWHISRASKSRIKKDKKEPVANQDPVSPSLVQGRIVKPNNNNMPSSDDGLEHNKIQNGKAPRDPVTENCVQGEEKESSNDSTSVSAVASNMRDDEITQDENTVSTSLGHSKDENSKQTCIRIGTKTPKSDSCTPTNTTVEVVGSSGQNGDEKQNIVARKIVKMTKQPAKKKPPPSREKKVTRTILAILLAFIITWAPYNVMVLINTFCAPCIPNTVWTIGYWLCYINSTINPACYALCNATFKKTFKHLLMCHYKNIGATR
Procedure: (§1) Linear Schild plot indicates the competitive interaction (slope = 1) of the tested compound (Supporting Information, Figure S55).
(§2) Intracellular Ca^2+ level was taken as a functional response to ACh. Black 96-well plates were seeded with 12,000 CHO cells per well. After two days of cultivation in DMEM at 37 °C under a humidified atmosphere containing 5% CO2, cells were washed with Krebs-HEPES buffer (KHB) (composition: (mM) NaCl (138), KCl (4), CaCl2 (1.3), MgCl2 (1), NaH2PO4 (1.2), HEPES (20), glucose (10), pH adjusted to 7.4) KHB was loaded with 5 μM Fura-2 (Sigma-Aldrich) for 1 h. The cells were washed with fresh KHB and preincubated with tested compounds for 1 h. Then plates were placed in a Cytation 3 reader. The first basal level (fluorescence dual excitation at 340 and 380 nm, emission at 510 nm) was measured. Following this, ACh was added to the desired concentration (ranging from 10 pM to 100 μM) by instrument injectors, and fluorescence was measured immediately. Intracellular Ca^2+ level was calculated as a ratio of 340 to 380 nm excitation fluorescence. […]
(§3) The intracellular level of calcium at various concentrations of ACh was measured. […] From a series of EC50 values of apparent inhibition constant KB was calculated by fitting eq 5 to dose ratio (DR) induced by tested compound at a given concentration: [drawing 5] […]

M3R = target: T2, M3R (Homo sapiens, UniProt P20309); experiment: Intracellular Ca2+ measurement, functional response to ACh, M3R in CHO cells; format: cell-based; conditions: antagonism of ACh-induced Ca2+ response, read-out: pKB M3R (converted)
T2 construct: host or cells: CHO cells (whole cells, Fura-2)
Procedure: as §1, §2, §3

H3R = H3R agonism check with thioperamide on electrically stimulated guinea pig ileum; conditions: thioperamide as H3R antagonist
Procedure: A standard ex vivo assay based on the relaxant response of histamine H3R agonists to electrically driven guinea pig ileum was used to test the influence of ADS compounds on the reduction of electrically evoked tissue contraction. […] The −log EC50 value for RAMH and ADS compounds were evaluated. […] Following this, we decided to evaluate the ADS series as potential M2R/M3R ligands on the isolated guinea pig ileum.
Male guinea pigs, weighing 300–400 g, were euthanized by a blow to the neck. A 20–30 cm length of the distal ileum, apart from the terminal 5 cm, was rapidly removed and placed in phosphate buffer at room temperature (pH 7.4) containing (mM) NaCl (136.9), KCl (2.6), KH2PO4 (1.47), Na2HPO4 (9.58), and indomethacin (1 × 10^–6 mol/L)). The intraluminal content was rinsed, and the isolated intestine was cut into 1.5–2 cm segments. The preparations were mounted between two platinum electrodes isotonically in a 20 mL organ bath filled with Krebs buffer: composition (mM) NaCl (118), KCl (5.6), MgSO4 (1.18), CaCl2 (2.5), NaH2PO4·H2O (1.28), NaHCO3 (25), glucose (5.55), and indomethacin (3 × 10^–7 mol/L). […] Cumulative concentration–response curve was determined to RAMH or tested agonist (10 nM to 10 mM) at increasing concentrations spaced by 3- or 3.3-fold. The agonist potency is expressed as pD2 value (−log EC50) ± sem.

T2 sequence (P20309 whole entry): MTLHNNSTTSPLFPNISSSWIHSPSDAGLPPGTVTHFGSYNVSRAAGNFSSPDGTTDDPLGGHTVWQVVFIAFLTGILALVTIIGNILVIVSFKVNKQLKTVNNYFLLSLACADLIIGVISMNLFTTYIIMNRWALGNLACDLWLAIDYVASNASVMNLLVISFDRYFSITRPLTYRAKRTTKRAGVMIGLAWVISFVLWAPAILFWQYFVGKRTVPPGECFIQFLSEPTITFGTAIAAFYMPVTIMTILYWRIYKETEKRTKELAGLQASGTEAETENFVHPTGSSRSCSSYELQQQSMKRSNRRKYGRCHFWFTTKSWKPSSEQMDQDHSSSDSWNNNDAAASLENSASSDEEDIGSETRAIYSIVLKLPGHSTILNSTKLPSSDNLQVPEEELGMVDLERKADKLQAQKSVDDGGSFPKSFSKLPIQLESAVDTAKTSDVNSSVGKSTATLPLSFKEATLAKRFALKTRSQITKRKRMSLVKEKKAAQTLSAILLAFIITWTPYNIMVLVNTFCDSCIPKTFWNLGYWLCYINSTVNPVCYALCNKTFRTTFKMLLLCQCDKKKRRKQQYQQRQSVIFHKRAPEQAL

For `N=C(N)N(CCCCN1CCN(C[C@H]2CC[C@@H](COc3ccccc3)CC2)CC1)Cc1ccccc1` [ADS10227, 1-{4-{4-{[4-(phenoxymethyl)cyclohexyl]methyl}piperazin-1-yl}but-1-yl}-1-(benzyl)guanidine], the Kb (muscarinic M2R; antagonism of ACh-induced Ca2+ response, CHO cells, read-out: pKB M2R (converted)) was 0.00676 µM, the Schild plot slope (muscarinic M2R; linear Schild plot, competitive interaction, M2R and M3R Ca2+ assays) was 1 and the Kb (M3R) was 0.0372 µM. For the same compound, the “shift of the concentration–response curve with or without thioperamide (H3R agonism)” value (H3R) was “no shifts”.

Reference: PMC8291587, “Guanidine Derivatives: How Simple Structural Modification of Histamine H3R Antagonists Has Led to the Discovery of Potent Muscarinic M2R/M4R Antagonists” (ACS Chemical Neuroscience, 2021)
